Assay results from EP2475361B1, “N-SUBSTITUTED BENZENEPROPANAMIDES FOR USE IN THE TREATMENT OF PAIN AND INFLAMMATION” (Novaremed Ltd., priority 2009, dated 2011).

How the values were obtained:
Balb/c mice [1] = test: Hot-Plate Test (antinociceptive effect, sub-chronic administration); assay type: in vivo; details: hot plate 52°C; 0.1 or 5 mg/Kg po daily for 16 days; tested on days 1, 8 and 15; compared with Diclofenac 10 mg/kg
Excerpt: The objective of the study was to assess antinociceptive activity of tested items in the hot plate tests in mice, when administered sub-chronically. Measuring paw licking or jumping response time elapses following placement on heated surface (hot plate) was used to determine potential antinociceptive effect in mice.
A total of 42 Balb/c mice (12weeks old) were utilized. The mice were approximately 25g males at study initiation. The minimum and maximum weights of the group were within a range of ±10 % of group mean weight.
Compounds 2 and 3 were tested and compared with Diclofenac® (Perigo). DMSO solutions were used. Six groups of mice (each having n=7 or n=8 mice) were tested, the last group receiving Diclofenac®.
All groups received the drugs daily po for 16 days. Hot plate experiments were performed on days; 1, 8 and 15.
The hot plate is maintained thermostatically at a temperature of 52°C. One hour before the administration of the drugs, mice are tested in the hot plate. At time 0 the mice are administered with the test compound and the response to the hot plate is measured again at different times: 60,120,180, 240, 300 and 360 min.
Results are expressed as: Delta from maximum response [baseline vs. maximum response]; Absolute measures over time; and Accumulated time.

Balb/c mice [2] = test: Formalin test; assay type: in vivo; details: formalin 1% intraplantar 3 h or 4 h after treatment; 0.2, 1, 2.5 mg/kg i.p.; paw licking 0-5 min and 20-30 min; Figures 12a-12e
Description: Formalin test. The method used was similar to that described by Hunscaar and Hole (1987) "The formalin test in mice: dissociation between inflammatory and non-inflammatory pain," Pain 30, pp.[…].
Five animals are used in each group and two to three hours after oral administration of the conjugates, 40 µl or 20 µl (rats or mice, respectively) of a 1% formalin (in 0.9% saline) solution is injected subcutaneously into the dorsal surface hind paw. The formalin induced typical flinching behaviour of the injected paw was counted. The animals were returned to a glass chamber and the total time spent by the animal licking or biting the injected paw was measured. Formalin induced pain behaviour is biphasic. The duration of paw licking was determined during the following two time periods: 0-5 min (first-neurogenic phase) and 20-30 min (second-inflammatory phase) after formalin injection. Part a. Male mice (Balb/c mice, 27 weeks old, not naïve), were divided in 4 groups (5 mice per group) and treated (0 min, i.p.) with the following formulations, respectively: […]
Part b. Male mice (Balb/c mice, 27 weeks old, not naive), were divided in 4 groups (5 mice in groups) and treated (0 min, i.p.) with the following formulations, respectively: […]

CC(O)COCC(Cc1ccc(O)cc1)NC(=O)CCc1ccccc1 (stereo not drawn) [Compound 2]
pain relief (antinociceptive effect) (Balb/c mice [1]): effective as pain relievers | anti-inflammatory properties (Balb/c mice [2]): anti-inflammatory properties

O=C(CCc1ccccc1)NC(COCCO)Cc1ccc(O)cc1 (stereo not drawn) [Compound 3]
pain relief (antinociceptive effect) (Balb/c mice [1]): effective as pain relievers
